This note sets out measurements from ChEMBL document CHEMBL1136728, “Antitumor activity of novel deoxoartemisinin monomers, dimers, and trimer” (J Med Chem, 2003).

Format in all cases: functional, cell-based
The subject of assay [1] is BeWo. In words: In vitro cytotoxicity of compound against Bewo, human choriocarcinoma was defined by microculture tetrazolium assay.
The test system of assay [2] is EL4. In words: In vitro cytotoxicity of compound against EL4, mouse thymoma was defined by microculture tetrazolium assay.
The subject of assay [3] is HT-29. In words: In vitro cytotoxicity of compound against HT29, human colorectal adenocarcinoma was defined by microculture tetrazolium assay.
The test system of assay [4] is P388. Briefly: In vitro cytotoxicity of compound against P388, mouse […] leukemia was defined by microculture tetrazolium assay.
Assay [5] concerns MCF7. In words: In vitro cytotoxicity of compound against MCF7, human breast cancer was defined by microculture tetrazolium assay.

Converted amounts (≈) assume the structure as drawn.

As for `C[C@H]1[C@@H](CCCCNC(=O)CC[C@H]2O[C@@H]3O[C@]4(C)CC[C@H]5[C@H](C)CC[C@@H]([C@H]2C)[C@]35OO4)O[C@@H]2O[C@]3(C)CC[C@H]4[C@H](C)CC[C@@H]1[C@]24OO3`, the IC50 was over 20 µg/mL in assay [1]; over 20 µg/mL in assay [2]; 20.2 µg/mL (≈ 30.5 µM) in assay [3]; over 20 µg/mL in assay [4]; over 20 µg/mL in assay [5].

With `C[C@H]1[C@@H](CCNC(=O)CC[C@H](NC(=O)CC[C@H]2O[C@@H]3O[C@]4(C)CC[C@H]5[C@H](C)CC[C@@H]([C@H]2C)[C@]35OO4)C(=O)NCC[C@H]2O[C@@H]3O[C@]4(C)CC[C@H]5[C@H](C)CC[C@@H]([C@H]2C)[C@]35OO4)O[C@@H]2O[C@]3(C)CC[C@H]4[C@H](C)CC[C@@H]1[C@]24OO3`, the IC50 stood at 18.3 µg/mL (≈ 17.3 µM) in assay [1]; 1.07 µg/mL (≈ 1.01 µM) in assay [2]; 0.09 µg/mL (≈ 0.0852 µM) in assay [3]; 0.12 µg/mL (≈ 0.114 µM) in assay [4]; 0.017 µg/mL (≈ 0.0161 µM) in assay [5].

Take `CO[C@@]12[C@H](COC(N)=O)C3=C(C(=O)C(C)=C(N)C3=O)N1C[C@@H]1N[C@@H]12` [MITOMYCIN]: the IC50 in assay [1] was 0.85 µg/mL (≈ 2.54 µM); in assay [2], 3.94 µg/mL (≈ 11.8 µM); in assay [3] it was 0.02 µg/mL (≈ 0.0598 µM); in assay [4], 1.5 µg/mL (≈ 4.49 µM); in assay [5], 0.93 µg/mL (≈ 2.78 µM).

For the molecule `C[C@H]1[C@@H](CCS(=O)(=O)CCCS(=O)(=O)CC[C@H]2O[C@@H]3O[C@]4(C)CC[C@H]5[C@H](C)CC[C@@H]([C@H]2C)[C@]35OO4)O[C@@H]2O[C@]3(C)CC[C@H]4[C@H](C)CC[C@@H]1[C@]24OO3`, the IC50 worked out at 8.5 µg/mL (≈ 11.2 µM) in assay [1]; 10 µg/mL (≈ 13.1 µM) in assay [2]; 0.38 µg/mL (≈ 0.499 µM) in assay [3]; 8.4 µg/mL (≈ 11 µM) in assay [4]; 5.6 µg/mL (≈ 7.36 µM) in assay [5].

`C[C@H]1[C@@H](CCCCN=[N+]=[N-])O[C@@H]2O[C@]3(C)CC[C@H]4[C@H](C)CC[C@@H]1[C@]24OO3`: the IC50 was over 20 µg/mL in assay [1]; 1.61 µg/mL (≈ 4.41 µM) in assay [2]; 2.76 µg/mL (≈ 7.55 µM) in assay [3]; 10.3 µg/mL (≈ 28.2 µM) in assay [4]; 11.6 µg/mL (≈ 31.7 µM) in assay [5].

Turning to `C[C@H]1[C@@H](CCC(=O)N[C@@H](CCC(=O)O)C(=O)O)O[C@@H]2O[C@]3(C)CC[C@H]4[C@H](C)CC[C@@H]1[C@]24OO3`, the IC50 in assay [1] was over 20 µg/mL; in assay [2], over 20 µg/mL; in assay [3] it was 8.6 µg/mL (≈ 18.3 µM); in assay [4], over 20 µg/mL; in assay [5] it was 13.4 µg/mL (≈ 28.5 µM).

As for `CC(=O)O[C@H]1C(=O)[C@@]2(C)[C@H]([C@H](OC(=O)c3ccccc3)[C@]3(O)C[C@H](OC(=O)[C@H](O)[C@@H](NC(=O)c4ccccc4)c4ccccc4)C(C)=C1C3(C)C)[C@]1(OC(C)=O)CO[C@@H]1C[C@@H]2O` [PACLITAXEL], the IC50 came to 7.39 µg/mL (≈ 8.65 µM) in assay [1], 1.34 µg/mL (≈ 1.57 µM) in assay [2], 0.01 µg/mL (≈ 0.0117 µM) in assay [3] and 2.27 µg/mL (≈ 2.66 µM) in assay [4].

As for `C[C@H]1[C@@H](CCSCC[C@H]2O[C@@H]3O[C@]4(C)CC[C@H]5[C@H](C)CC[C@@H]([C@H]2C)[C@]35OO4)O[C@@H]2O[C@]3(C)CC[C@H]4[C@H](C)CC[C@@H]1[C@]24OO3`, the IC50 in assay [1] amounted to 14.2 µg/mL (≈ 22.8 µM); in assay [2], 0.23 µg/mL (≈ 0.369 µM); in assay [3], 0.24 µg/mL (≈ 0.385 µM); in assay [4], 0.4 µg/mL (≈ 0.642 µM); in assay [5] it was 0.017 µg/mL (≈ 0.0273 µM).

With `C[C@H]1[C@@H](CCNC(=O)CC[C@H](N)C(=O)NCC[C@H]2O[C@@H]3O[C@]4(C)CC[C@H]5[C@H](C)CC[C@@H]([C@H]2C)[C@]35OO4)O[C@@H]2O[C@]3(C)CC[C@H]4[C@H](C)CC[C@@H]1[C@]24OO3`, the IC50 was over 20 µg/mL in assay [1]; 16.5 µg/mL (≈ 22.5 µM) in assay [2]; 6.5 µg/mL (≈ 8.86 µM) in assay [3]; 15.6 µg/mL (≈ 21.3 µM) in assay [4]; 15.3 µg/mL (≈ 20.8 µM) in assay [5].

For `C[C@H]1[C@@H](CCNC(=O)CC[C@H]2O[C@@H]3O[C@]4(C)CC[C@H]5[C@H](C)CC[C@@H]([C@H]2C)[C@]35OO4)O[C@@H]2O[C@]3(C)CC[C@H]4[C@H](C)CC[C@@H]1[C@]24OO3`, the IC50 was 7.5 µg/mL (≈ 11.8 µM) in assay [1]; 6.29 µg/mL (≈ 9.92 µM) in assay [2]; 0.69 µg/mL (≈ 1.09 µM) in assay [3]; 10.4 µg/mL (≈ 16.4 µM) in assay [4]; 0.005 µg/mL (≈ 0.00789 µM) in assay [5].

As to `C[C@H]1[C@@H](CCS(=O)(=O)CC[C@H]2O[C@@H]3O[C@]4(C)CC[C@H]5[C@H](C)CC[C@@H]([C@H]2C)[C@]35OO4)O[C@@H]2O[C@]3(C)CC[C@H]4[C@H](C)CC[C@@H]1[C@]24OO3`, the half-maximal inhibitory concentration (IC50) came to 1.04 µg/mL (≈ 1.59 µM) in assay [1]; 0.54 µg/mL (≈ 0.825 µM) in assay [2]; 0.38 µg/mL (≈ 0.58 µM) in assay [3]; 5.6 µg/mL (≈ 8.55 µM) in assay [4]; 0.025 µg/mL (≈ 0.0382 µM) in assay [5].

As for `COc1cccc2c1C(=O)c1c(O)c3c(c(O)c1C2=O)C[C@@](O)(C(=O)CO)C[C@@H]3O[C@H]1C[C@H](N)[C@H](O)[C@H](C)O1` [DOXORUBICIN], the IC50 in assay [1] was 6.24 µg/mL (≈ 11.5 µM); in assay [2], 0.67 µg/mL (≈ 1.23 µM); in assay [3], 0.1 µg/mL (≈ 0.184 µM); in assay [4], 0.39 µg/mL (≈ 0.718 µM).

In the case of `C[C@H]1[C@@H](CCCCN)O[C@@H]2O[C@]3(C)CC[C@H]4[C@H](C)CC[C@@H]1[C@]24OO3`, the IC50 in assay [1] was over 20 µg/mL; in assay [2] it was 5.63 µg/mL (≈ 16.6 µM); in assay [3], 2.2 µg/mL (≈ 6.48 µM); in assay [4], 6.18 µg/mL (≈ 18.2 µM); in assay [5], 0.02 µg/mL (≈ 0.0589 µM).
